Assays:
Assay type in all cases: cell-based, rat
Hippocampal neurons = test: Effect of inhibitors on BDNF-induced gene transcription (real time RT-PCR); conditions: for Effect of inhibitor on BDNF-induced VGF transcription / Effect of inhibitor on BDNF-induced Arc transcription / Effect of inhibitor on BDNF-induced EGR-1 transcription / Effect of inhibitor on BDNF-induced c-fos transcription: 30 min pre-incubation, K252a 200 nM, U0126 30 μM, PD98059 50 μM, U73122 10 μM, KN93 10 μM, LY294002 30 μM, H-89 1 μM, CC 1 μM; for Effect of inhibitor on BDNF-induced VGF transcription: BDNF 3 Hours; for Effect of inhibitor on BDNF-induced Arc transcription / Effect of inhibitor on BDNF-induced EGR-1 transcription / Effect of inhibitor on BDNF-induced c-fos transcription: BDNF 20 Minutes; for Effect on BDNF-induced transcription of the immediate early genes and VGF: BDNF 20 min for immediate early genes, 3 hr for VGF
Method: Signaling cascades involved in BDNF-mediated synaptic strengthening include mitogen-activated protein (MAP) kinase, phospholipase C-γ (PLC-γ) and phosphoinositide-3 kinase (PI3K) (Gottschalk et al. (1999) supra; Minichiello et al. (2002) supra; Ying et al. (2002); Mizuno et al. (2003) supra). To determine whether these transduction pathways are also required for BDNF transcriptional regulation of immediate early genes at 20 minutes and for VGF at 3 hours, pharmacological inhibitors were employed (Table 2).
Effect of inhibitors on BDNF-induced gene transcription. The regulation of BDNF-induced genes in the presence of inhibitors was determined by real time RT-PCR. Neurons were pre-incubated with inhibitors for 30 minutes prior to BDNF treatment (20 minutes for immediate early genes and 3 hours for VGF). […] “blocked” indicates significant reduction of transcription in the presence of inhibitor plus BDNF relative to BDNF alone (p<0.05, ANOVA, n=3).
Each experiment consisted of four groups: vehicle, inhibitor alone, BDNF, BDNF plus inhibitor. Data were normalized to GAPDH and expressed as a fold change of vehicle control.
(§1) cDNA (100 μl) was prepared from 2 μg control or BDNF-treated RNA using random primers and Superscript II reverse transcriptase. 25 μl PCR reactions were then carried out using gene specific primers designed by Primer Express software and TaqMan MGB probes (Applied Biosystems 7000 Sequence Detection System, Foster City, Calif.). Duplicate wells were included for each condition and primer pair. Primers specific to the housekeeping gene, glyceraldehyde-3-phosphate dehydrogenase (GAPDH) were used as an internal control. Data analysis was performed according to the protocol provided by Applied Biosystems.
Hippocampal neurons were pre-incubated with inhibitors for 30 min prior to BDNF treatment (20 min for IEGs and 3 hr for VGF). All inhibitors were purchased from Calbiochem, San Diego, Calif. K252a (200 nM), U0126 (30 μM), PD98059 (50 μM), U73122 (10 μM), KN93 (10 μM), LY294002 (30 μM), H-89 (1 μM) and chelerythrine chloride (CC, 1 μM). Pharmacological inhibitors were tested for efficacy by assaying downregulation of endogenous kinase phosphorylation in cell culture using Western blot (Y. Z. Du and C. F. Dreyfus, personal communication). Each experiment consisted of 4 groups: vehicle, inhibitor alone, BDNF, and BDNF plus inhibitor. Following inhibitor and BDNF treatments, RNA was isolated and subjected to real time RT-PCR as described above.

hippocampal cells [1] = test: Whole-cell patch-clamp recordings of synaptic charge
Method: To examine the relationship between synaptic response and gene expression, an individual cell's electrophysiological response to BDNF was examined in conjunction with single-cell RT-PCR for Arc. […] Whole-cell patch-clamp recordings from 16 cells verified 0.8- to 4.5-fold increase in synaptic charge following 20 minutes BDNF exposure. […] A group of BDNF-treated cells presenting a minimal synaptic response was apparent. This group was categorized as non-responders (FIG. 1B) and the other cells showing a greater response to BDNF were classified as responders. To determine whether cellular basal activity influences the response to BDNF, the average synaptic charge pre-BDNF of the responders (36±13.1 pC, n=7) versus the non-responders (23.2±6.6 pC, n=9) was compared.
To explore a functional role for VGF in neuromodulation, whole-cell patch-clamp recordings on hippocampal cells were performed in the presence of synthetic VGF peptides. The electrophysiological profile of VGF peptides on hippocampal cells was similar to that observed for BDNF (Levine et al. (1996) supra). […] Enhanced synaptic activity was maintained for up to 25 minutes in the continued presence of Thr-Leu-Gln-Pro-62 (SEQ ID NO:14). […] The effects of both Ala-Gln-Glu-Glu-30 (SEQ ID NO:16) and Thr-Leu-Gln-Pro-62 (SEQ ID NO:14) peptides were dose-dependent, saturating at 0.1 μM.
Whole-cell patch clamp recordings were performed after 10-14 days in culture. Currents were recorded with an Axoclamp 200 amplifier, digitized at 2.5 kHz with an INDEC IDA 15125 interface, filtered at 5 kHz and stored. Recording parameters and stimulus protocols were controlled by custom software written with Borland C++ that utilizes device driver libraries supplied by INDEC. Data analysis programs were written with Microsoft Visual Basic. The. external bath solution for voltage clamp recordings was (in mM) 1.67 CaCl2, 1 MgCl2, 5.36 KCl, 137 NaCl, 17 glucose, 10 HEPES and 20 sucrose (neuron recording solution, NRS). The pipette solution contained (in mM) 105 Cs-methanesulfonate, 17.5 CsCl, 10 HEPES, 0.2 EGTA, 8 NaCl, 2 Mg-ATP, 2 Na-ATP, 0.3 Na-GTP, 20 phosphocreatinine, and 50 U/ml creatinine phosphokinase. All recordings were made at room temperature. The typical range of pipette resistance was 3-5 MΩ. Cell capacitance was 10-20 pF and access resistance was 7-20 MΩ. Vacuum perfusion system contained BDNF (50 ng/ml, Preprotech, Princeton, N.J.), NRS as a control or VGF peptides (0.1 μM=740 ng/ml). Three synthetic rat VGF peptides were used: Leu-Glu-Gly-Ser-28 (SEQ ID NO:15) amino acids 285-312 (amidated), Thr-Leu-Gln-Pro-62 (SEQ ID NO:14) amino acids 556-617 and Ala-Gln-Glu-Glu-30 (SEQ ID NO:16) amino acids 588-617. Each data point represents a cell from a separate dish and at least three different platings were used for each condition.
Data were analyzed by integrating the synaptic currents for each sweep (synaptic charge). The charge measurements for all sweeps in a 1 min period were averaged (binned). Baseline is considered the average synaptic charge during the 2 min period (−2 to 0 min) in NRS immediately prior to BDNF or VGF application. Fold increases were then determined by dividing the synaptic charge during BDNF or VGF exposure by the baseline. Recordings were rejected if either the 0-5 min binned time period or 5-10 min binned time period after switching during BDNF or VGF exposure was 2×SEM below baseline, indicating “run down”.

hippocampal cells [2] = test: Real-time RT-PCR of genes induced by neurotrophin treatment of hippocampal cultures; design: key to NGF effect on Fra2 transcription / NGF effect on CyclinD1 transcription / NGF effect on c-fos transcription / NGF effect on Kv + 1.1 transcription / NGF effect on Na + ch transcription / NGF effect on SgII transcription / NGF effect on SSTR4 transcription / NGF effect on UNC5H2 transcription / NGF effect on NPY transcription / NGF effect on VGF transcription / NGF effect on EGR1 transcription / NGF effect on PTP1B transcription / NGF effect on Arc transcription: UC = unchanged; DOWN: down = decreased
Method: The molecular genetics underlying BDNF-evoked plasticity were examined by expression profiling using cDNA microarrays on a population of hippocampal cells in vitro. Synaptic effects of BDNF are observed within 20 minutes of exposure (Levine et al. (1996) supra; Lessmann and Heumann (1998) supra; Schinder et al. (2000) supra). A 3-hour BDNF treatment has been used to identify several genes with roles in synaptic plasticity (Thakker-Varia et al. (2001) supra). Consequently, to reveal immediate, as well as downstream transcriptional changes, both acute (20 minutes) and longer treatment (3 hours) with BDNF were used herein. […] Two independent Atlas arrays were performed using RNA from hippocampal cells treated for either 20 minutes or 3 hours of BDNF (50 ng/mL) and control sister cultures.
Of those genes selected, the regulation of 7% at 20 minutes and 40% at 3 hours were validated, although the magnitude of regulation was not always identical to that observed on the microarray. To focus on genes specifically involved in plasticity, a related neurotrophin, nerve growth factor (NGF), not inducing synaptic plasticity (Levine et al. (1996) supra), served as a control.
Time-mated pregnant rats were sacrificed by CO2 asphyxiation in accordance with institutional guidelines for care and use of animals. Fetuses were removed by caesarean section and transferred to a sterile petri dish with phosphate-buffered saline. Fetal hippocampi were dissected from surrounding brain tissue and meninges were completely removed. Low-density cultures of dissociated embryonic day 18 rat hippocampi (Sprague Dawley from Hilltop Laboratories, Scottsdale, Pa.) were prepared using standard methods (Thakker-Varia et al. (2001) supra). Briefly, pooled tissue from each litter was mechanically dissociated in nutrient medium containing 7.5% fetal bovine serum and plated on poly-D-lysine-coated culture dishes at 350,000 cells/dish. Cultures were maintained in serum-free medium (Thakker-Varia et al., 2001) for 10-14 days and contained pure neurons.
Total cellular RNA was prepared from neuronal cultures treated with either BDNF (50 ng/ml) or vehicle (water) for either 20 min or 3 hr by the guanidine isothiocyanate method and CsCl gradients (Thakker-Varia et al., 2001). DNAse-treated total RNA was prepared from neurotrophin or control hippocampal cultures and reverse transcribed using gene specific primers. Radioactively labeled probes were then hybridized to Atlas Arrays Rat 1.2 (Clontech, Palo Alto, Calif.) according to manufacturer's protocol. Arrays were performed in duplicate with an independent source of RNA. The hybridization pattern was analyzed on a phosphorimager and normalized to the global hybridization signal. Analysis was performed by Clontech using 1.7-fold change as criteria for significance. All transcriptional changes were confirmed by real time RT-PCR on independent samples (see below).
as §1

[3] = NGF as control neurotrophin, 20 minute section of Table 1
[4] = NGF as control neurotrophin, 3 hour section of Table 1

Molecule: COC(=O)[C@@]1(O)C[C@H]2O[C@]1(C)n1c3ccccc3c3c4c(c5c6ccccc6n2c5c31)C(=O)NC4 [K252a]
- Effect of inhibitor on BDNF-induced VGF transcription (Hippocampal neurons): Blocked
- Effect of inhibitor on BDNF-induced Arc transcription (Hippocampal neurons): Blocked
- Effect of inhibitor on BDNF-induced EGR-1 transcription (Hippocampal neurons): Blocked
- Effect of inhibitor on BDNF-induced c-fos transcription (Hippocampal neurons): Blocked
- Effect on BDNF-induced transcription of the immediate early genes and VGF (Hippocampal neurons): blocked

Molecule: Ala-Gln-Glu-Glu-30: synthetic rat VGF peptide, amino acids 588-617, C-terminal region (AQEE)
- Saturating concentration of dose-dependent effect on synaptic charge (hippocampal cells [1]): 0.1 µM

Molecule: Thr-Leu-Gln-Pro-62: synthetic rat VGF peptide, amino acids 556-617, C-terminal portion of VGF (TLQP)
- Saturating concentration of dose-dependent effect on synaptic charge (hippocampal cells [1]): 0.1 µM
- Time to increased synaptic charge (hippocampal cells [1]; after start of peptide perfusion): ≤ 5 min
- Time enhanced synaptic activity was maintained (hippocampal cells [1]; continued presence of peptide): up to 25 minutes
- Effect on synaptic charge (hippocampal cells [1]; perfusion of synthetic rat VGF peptide, 0.1 μM): Increased synaptic charge

Molecule: COc1ccc(S(=O)(=O)N(CCO)c2ccccc2CN(C)C/C=C/c2ccc(Cl)cc2)cc1 [KN93]
- Effect of inhibitor on BDNF-induced VGF transcription (Hippocampal neurons): Blocked
- Effect of inhibitor on BDNF-induced Arc transcription (Hippocampal neurons): Blocked
- Effect of inhibitor on BDNF-induced EGR-1 transcription (Hippocampal neurons): Blocked
- Effect of inhibitor on BDNF-induced c-fos transcription (Hippocampal neurons): Blocked
- Effect on BDNF-induced transcription of the immediate early genes and VGF (Hippocampal neurons): blocked

Molecule: N#CC(=C(/N)Sc1ccccc1N)/C(C#N)=C(\N)Sc1ccccc1N [U0126]
- Effect of inhibitor on BDNF-induced VGF transcription (Hippocampal neurons): Blocked
- Effect of inhibitor on BDNF-induced Arc transcription (Hippocampal neurons): Blocked
- Effect of inhibitor on BDNF-induced EGR-1 transcription (Hippocampal neurons): Blocked
- Effect of inhibitor on BDNF-induced c-fos transcription (Hippocampal neurons): Blocked
- Effect on BDNF-induced transcription of the immediate early genes and VGF (Hippocampal neurons): blocked

Molecule: COc1ccc2c(c1)CC[C@@H]1[C@@H]2CC[C@]2(C)[C@@H](NCCCCCCN3C(=O)C=CC3=O)CC[C@@H]12 [U73122]
- Effect of inhibitor on BDNF-induced VGF transcription (Hippocampal neurons): Blocked
- Effect of inhibitor on BDNF-induced Arc transcription (Hippocampal neurons): Blocked
- Effect of inhibitor on BDNF-induced c-fos transcription (Hippocampal neurons): Blocked
- Effect on BDNF-induced transcription of the immediate early genes and VGF (Hippocampal neurons): blocked

Molecule: COc1cccc(-c2cc(=O)c3ccccc3o2)c1N [PD98059]
- Effect of inhibitor on BDNF-induced VGF transcription (Hippocampal neurons): Blocked
- Effect of inhibitor on BDNF-induced Arc transcription (Hippocampal neurons): Blocked
- Effect of inhibitor on BDNF-induced EGR-1 transcription (Hippocampal neurons): Blocked
- Effect of inhibitor on BDNF-induced c-fos transcription (Hippocampal neurons): Blocked
- Effect on BDNF-induced transcription of the immediate early genes and VGF (Hippocampal neurons): blocked

Molecule: O=S(=O)(NCCNC/C=C/c1ccc(Br)cc1)c1cccc2cnccc12 [H-89]
- Effect on BDNF-induced transcription of the immediate early genes and VGF (Hippocampal neurons): did not affect gene expression

Molecule: NGF: related neurotrophin, nerve growth factor, not inducing synaptic plasticity, served as a control
- Effect of NGF on transcription of BDNF-induced genes (hippocampal cells [2]): did not affect transcription of most genes
- NGF effect on Arc transcription (hippocampal cells [2]; [3]): UC
- NGF effect on EGR1 transcription (hippocampal cells [2]; [3]): UC
- NGF effect on c-fos transcription (hippocampal cells [2]; [3]): UC
- NGF effect on Arc transcription (hippocampal cells [2]; [4]): UC
- NGF effect on CyclinD1 transcription (hippocampal cells [2]; [4]): UC
- NGF effect on EGR1 transcription (hippocampal cells [2]; [4]): UC
- NGF effect on Fra2 transcription (hippocampal cells [2]; [4]): DOWN
- NGF effect on Kv + 1.1 transcription (hippocampal cells [2]; [4]): UC
- NGF effect on NPY transcription (hippocampal cells [2]; [4]): DOWN
- NGF effect on Na + ch transcription (hippocampal cells [2]; [4]): UC
- NGF effect on PTP1B transcription (hippocampal cells [2]; [4]): UC
- NGF effect on SSTR4 transcription (hippocampal cells [2]; [4]): DOWN
- NGF effect on SgII transcription (hippocampal cells [2]; [4]): UC
- NGF effect on UNC5H2 transcription (hippocampal cells [2]; [4]): UC
- NGF effect on VGF transcription (hippocampal cells [2]; [4]): UC
- NGF effect on c-fos transcription (hippocampal cells [2]; [4]): UC
